Results: US7625841B2, “Substituted thiene-3-ylsulphonylamino(thio)carbonyltriazolin(ethi)ones” (Bayer CropScience AG, priority 2001, dated 2009)

Tests used:
Type in all cases: in vivo
[1] = system: crop plants, such as, for example, maize, soyabean and wheat; test: Pre-emergence test, summary for crop plants
Experimental: (§1) • Solvent: 5 parts by weight of acetone • Emulsifier: 1 part by weight of alkylaryl polyglycol ether
(§2) To produce a suitable preparation of active compound, 1 part by weight of active compound is mixed with the stated amount of solvent, the stated amount of emulsifier is added and the concetrate is diluted with water to the desired concentration.
(§3) Seeds of the test plants are sown in normal soil. After 24 hours, the soil is sprayed with the preparation of active compound such that the particular amount of active compound desired is applied per unit area. The concentration of active compound in the spray liquor is chosen such that the particular amount of active compound desired is applied in 1000 litres of water per hectare.
(§4) After three weeks, the degree of damage to the plants is rated in % damage in comparison to the development of the untreated control. The figures denote: • 0%=no effect (like untreated control) • 100%=total destruction

Alopecurus [2] = test: Post-emergence test/greenhouse; details: greenhouse, application rate 15 gai/ha, rated after three weeks, 0%=no effect, 100%=total destruction
Experimental: as §1
(§5) To produce a suitable preparation of active compound, 1 part by weight of active compound is mixed with the stated amount of solvent, the stated amount of emulsifier is added and the concentrate is diluted with water to the desired concentration.
(§6) Test plants of a height of 5-15 cm are sprayed with the preparation of active compound such that the particular amounts of active compound desired are applied per unit area. The concentration of the spray liquor is chosen such that the particular amounts of active compound desired are applied in 1000 l of water/ha.
(§7) After three weeks, the degree of damage to the plants is rated in % damage in comparison to the development of the untreated control.
(§8) The figures denote: • 0%=no effect (like untreated control) • 100%=total destruction

maize [3] = test: Post-emergence test/greenhouse; details: greenhouse, application rate 15 gai/ha, rated after three weeks, 0%=no effect, 100%=total destruction
Experimental: as §1, §5, §6, §7, §8

Echinochloa = test: Post-emergence test/greenhouse; details: greenhouse, application rate 15 gai/ha, rated after three weeks, 0%=no effect, 100%=total destruction
Experimental: as §1, §5, §6, §7, §8

Bromus [4] = test: Post-emergence test/greenhouse; details: greenhouse, application rate 15 gai/ha, rated after three weeks, 0%=no effect, 100%=total destruction
Experimental: as §1, §5, §6, §7, §8

Digitaria = test: Post-emergence test/greenhouse; details: greenhouse, application rate 15 gai/ha, rated after three weeks, 0%=no effect, 100%=total destruction
Experimental: as §1, §5, §6, §7, §8

Setaria [5] = test: Post-emergence test/greenhouse; details: greenhouse, application rate 15 gai/ha, rated after three weeks, 0%=no effect, 100%=total destruction
Experimental: as §1, §5, §6, §7, §8

Avena fatua = test: Post-emergence test/greenhouse; details: greenhouse, application rate 15 gai/ha, rated after three weeks, 0%=no effect, 100%=total destruction
Experimental: as §1, §5, §6, §7, §8

Lolium [6] = test: Post-emergence test/greenhouse; details: greenhouse, application rate 15 gai/ha, rated after three weeks, 0%=no effect, 100%=total destruction
Experimental: as §1, §5, §6, §7, §8

[7] = system: crop plants such as, for example, maize, oilseed rape and wheat; test: Post-emergence test, summary for crop plants
Experimental: as §1, §5, §6, §7, §8

weeds [8] = test: Post-emergence test, summary for weeds
Experimental: as §1, §5, §6, §7, §8

Alopecurus [9] = test: Pre-emergence test/greenhouse; details: greenhouse, application rate 15 gai/ha, rated after three weeks, 0%=no effect, 100%=total destruction
Experimental: as §1, §2, §3, §4

maize [10] = test: Pre-emergence test/greenhouse; details: greenhouse, application rate 15 gai/ha, rated after three weeks, 0%=no effect, 100%=total destruction
Experimental: as §1, §2, §3, §4

soybeans = test: Pre-emergence test/greenhouse; details: greenhouse, application rate 15 gai/ha, rated after three weeks, 0%=no effect, 100%=total destruction
Experimental: as §1, §2, §3, §4

Amaranthus = test: Pre-emergence test/greenhouse; details: greenhouse, application rate 15 gai/ha, rated after three weeks, 0%=no effect, 100%=total destruction
Experimental: as §1, §2, §3, §4

Setaria [11] = test: Pre-emergence test/greenhouse; details: greenhouse, application rate 15 gai/ha, rated after three weeks, 0%=no effect, 100%=total destruction
Experimental: as §1, §2, §3, §4

wheat [12] = test: Pre-emergence test/greenhouse; details: greenhouse, application rate 15 gai/ha, rated after three weeks, 0%=no effect, 100%=total destruction
Experimental: as §1, §2, §3, §4

Matricaria = test: Pre-emergence test/greenhouse; details: greenhouse, application rate 15 gai/ha, rated after three weeks, 0%=no effect, 100%=total destruction
Experimental: as §1, §2, §3, §4

Stellaria = test: Pre-emergence test/greenhouse; details: greenhouse, application rate 15 gai/ha, rated after three weeks, 0%=no effect, 100%=total destruction
Experimental: as §1, §2, §3, §4

weeds [13] = test: Pre-emergence test, summary for weeds
Experimental: as §1, §2, §3, §4

wheat [14] = test: Post-emergence test/greenhouse; details: greenhouse, application rate 15 gai/ha, rated after three weeks, 0%=no effect, 100%=total destruction
Experimental: as §1, §5, §6, §7, §8

Bromus [15] = test: Pre-emergence test/greenhouse; details: greenhouse, application rate 15 gai/ha, rated after three weeks, 0%=no effect, 100%=total destruction
Experimental: as §1, §2, §3, §4

Lolium [16] = test: Pre-emergence test/greenhouse; details: greenhouse, application rate 15 gai/ha, rated after three weeks, 0%=no effect, 100%=total destruction
Experimental: as §1, §2, §3, §4

Polygonum = test: Pre-emergence test/greenhouse; details: greenhouse, application rate 15 gai/ha, rated after three weeks, 0%=no effect, 100%=total destruction
Experimental: as §1, §2, §3, §4

Solanum = test: Pre-emergence test/greenhouse; details: greenhouse, application rate 15 gai/ha, rated after three weeks, 0%=no effect, 100%=total destruction
Experimental: as §1, §2, §3, §4

Viola = test: Post-emergence test/greenhouse; details: greenhouse, application rate 15 gai/ha, rated after three weeks, 0%=no effect, 100%=total destruction
Experimental: as §1, §5, §6, §7, §8

SMILES | tolerance by crop plants [1] | degree of damage to the plants, Alopecurus (Alopecurus [2]) [%] | degree of damage to the plants, maize (maize [3]) [%] | degree of damage to the plants, Echinochloa (Echinochloa) [%] | degree of damage to the plants, Bromus (Bromus [4]) [%] | degree of damage to the plants, Digitaria (Digitaria) [%] | degree of damage to the plants, Setaria (Setaria [5]) [%] | degree of damage to the plants, Avena fatua (Avena fatua) [%] | compatibility with crop plants compared with the known compounds (A) and (B) [7] | activity against weeds compared with the known compounds (A) and (B) (weeds [8]) | degree of damage to the plants, Alopecurus (Alopecurus [9]) [%] | degree of damage to the plants, maize (maize [10]) [%] | degree of damage to the plants, soybeans (soybeans) [%] | degree of damage to the plants, Amaranthus (Amaranthus) [%] | degree of damage to the plants, wheat (wheat [12]) [%] | degree of damage to the plants, Matricaria (Matricaria) [%] | degree of damage to the plants, Stellaria (Stellaria) [%] | activity against weeds compared with the known compounds (A) to (G) (weeds [13]) | degree of damage to the plants, wheat (wheat [14]) [%] | degree of damage to the plants, Lolium (Lolium [16]) [%] | also measured
COCc1nn(C(=O)NS(=O)(=O)c2c(C(=O)OC)csc2C)c(=O)n1C [Example 18] | tolerated well by crop plants | 95 | 0 | 95 | 80 | 95 | 100 | 95 | substantially better compatibility with crop plants | considerably stronger activity against weeds | 95 | 0 | 0 | 95 | 0 | 100 | 95 | considerably stronger activity against weeds | – | – | degree of damage to the plants, Lolium (Lolium [6]): 95%; degree of damage to the plants, Setaria (Setaria [11]): 95%
COC(=O)c1csc(C)c1S(=O)(=O)NC(=O)n1nc(C2CC2)n(C)c1=O [Example 22] | tolerated well by crop plants | 99 | 0 | – | 95 | 95 | 90 | 80 | substantially better compatibility with crop plants | considerably stronger activity against weeds | 95 | 0 | – | – | 0 | – | 100 | considerably stronger activity against weeds | 0 | 95 | degree of damage to the plants, Bromus (Bromus [15]): 100%; degree of damage to the plants, Polygonum (Polygonum): 95%; degree of damage to the plants, Solanum (Solanum): 100%
CCSc1nn(C(=O)NS(=O)(=O)c2c(C(=O)OC)csc2C)c(=O)n1C [Example 20] | tolerated well by crop plants | 90 | – | 100 | 80 | – | – | – | substantially better compatibility with crop plants | considerably stronger activity against weeds | 90 | 0 | 0 | 95 | 0 | 100 | 100 | considerably stronger activity against weeds | 0 | 95 | degree of damage to the plants, Viola (Viola): 100%; degree of damage to the plants, Solanum (Solanum): 100%
